Assays:
[1] = target: aldose-1-epimerase (mutarotase, EC 5.1.3.3) from Acinetobacter calcoaceticus (Acinetobacter calcoaceticus, UniProt P05149)
Method: Principle: [drawing 1] Mutarotase, glucose-dehydrogenase and NAD are caused to react with a freshly prepared solution of α-glucose, and the NADH2 is determined by measuring the extinction at 366 nm. The measurement of the acceleration of the formation of NADH2 by mutarotase (compared with a blank without mutarotase) allows the mutarotase activity in the solution used to be calculated.
As soon as the extinction is constant, the start is made with 0.10 ml of solution 4 in each case.
A fresh glucose solution is prepared for each measurement. It is absolutely necessary to adhere to the following procedure in order to allow for the existing mutarotation: a 150 ml beaker is filled with 100 ml of distilled water and the temperature is adjusted to 20° C. The beaker is evenly stirred, 30 mg of α-glucose are added, the stopwatch is started and the time is marked on the recorder chart. Mixing takes place for 30 seconds. Within the next 15 seconds, the glucose solution is pipetted into the cell, the cell content is thoroughly mixed and, after the expiration of these 15 seconds, the increase in extinction is recorded. The measurment is taken at 366 nm, layer thickness 1 cm, cell temperature 25° C.
For evaluation, a tangent is put to the linear part at the origin of the recording curve, and ΔE/minute is read off; subtraction of the blank from the analysis value gives a value of ΔΔE/minute, which is inserted into the following calculation equation:
Enzyme activity=ΔΔE/minute×4.09 U of mutarotase per ml of […]

[2] = target: mutarotase from bovine kidneys (Bos taurus, UniProt Q5EA79); details: read-out: Michaelis constant (KM); glucose determination context
Chain of mutarotase from bovine kidneys (Q5EA79 whole entry): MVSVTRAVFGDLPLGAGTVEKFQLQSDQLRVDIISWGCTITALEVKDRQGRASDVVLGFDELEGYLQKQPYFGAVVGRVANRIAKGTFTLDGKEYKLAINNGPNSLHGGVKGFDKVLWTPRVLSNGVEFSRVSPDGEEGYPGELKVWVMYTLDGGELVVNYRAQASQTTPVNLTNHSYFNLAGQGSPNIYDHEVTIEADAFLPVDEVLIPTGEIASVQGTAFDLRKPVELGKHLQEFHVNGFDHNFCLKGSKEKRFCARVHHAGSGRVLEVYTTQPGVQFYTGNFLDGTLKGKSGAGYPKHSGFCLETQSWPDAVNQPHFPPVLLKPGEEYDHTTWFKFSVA

[3] = tested on: mutarotase from Aspergillus niger; details: read-out: Michaelis constant (KM); Biochim. Biophys. Acta 662, 285 (1981); cited from earlier work

Chain of aldose-1-epimerase (mutarotase, EC 5.1.3.3) from Acinetobacter calcoaceticus (P05149 21-381): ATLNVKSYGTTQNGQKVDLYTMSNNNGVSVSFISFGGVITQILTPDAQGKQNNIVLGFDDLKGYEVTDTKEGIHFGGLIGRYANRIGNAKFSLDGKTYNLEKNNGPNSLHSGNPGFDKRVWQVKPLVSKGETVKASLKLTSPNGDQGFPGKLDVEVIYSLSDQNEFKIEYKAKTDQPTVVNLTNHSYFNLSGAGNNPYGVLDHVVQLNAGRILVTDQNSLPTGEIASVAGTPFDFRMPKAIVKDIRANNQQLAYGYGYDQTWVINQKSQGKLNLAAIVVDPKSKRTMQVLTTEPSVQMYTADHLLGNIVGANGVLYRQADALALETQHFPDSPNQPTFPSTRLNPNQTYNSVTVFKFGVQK

Row | Substance | Michaelis constant for galactose compared with glucose [1] | Michaelis constant for galactose relative to that of the mutarotase from bovine kidneys [1] | Km ([1]; read-out: Michaelis constant (KM) for glucose, mutarotase according to the invention) | Km [2] | Km [3]
1 | galactose | same Michaelis constant | 3 times |  |  | 
2 | glucose |  |  | 6 to 8 mM | 18 to 20 mM | 50 mM
